From patent US10351530B2, “Arylcyclohexyl pyrazoles as NRF2 regulators” (GlaxoSmithKline Intellectual Property Development Limited, priority 2015, dated 2019)

Assays:
Keap1/NRF2 = target: T1, Keap1/NRF2 (Homo sapiens, UniProt Q14145); assay: NRF2-Keap1 FP Assay (Kelch domain (321-609) of Keap1, TAMRA-labeled NRF2 ETGE peptide); type: binding; conditions: Keap1 (321-609) 20 nM, Tamra labeled peptide 8 nM
T1 construct: Keap1 (321-609) is diluted to 40 nM (2×) in 1× assay buffer
Excerpt: One model for the NRF2-Keap1 interaction is through two binding sites in the Neh2 domain on NRF2. The two sites are referred to as the DLG binding motif (latch domain, uM affinity) and the ETGE binding motif (hinge domain, nM affinity). The Keap1 protein consists of an N-terminal region (NTR), a broad complex, tramtrack, and brick a′ brac domain (BTB), an intervening region (IVR), a double glycine repeat domain (DGR or Kelch), and a C-terminal region. The DLG and ETGE motifs of NRF2's Neh2 domain bind to the Kelch domain of Keap1 at different affinities. In the Keap1 Kelch fluorescence polarization (FP) assay, a TAMRA-labeled 16 mer peptide (AFFAQLQLDEETGEFL) containing the ETGE motif of NRF2 and the Kelch domain (321-609) of Keap1 is used. The assay determines if a compound interferes with the binding between Keap1 […] and the TAMRA-labeled peptide. Binding of TAMRA-labeled NRF2 peptide to Keap1 (321-609) results in a high FP signal. If a compound interferes with the binding between the peptide and the protein, it will cause the assay signal to decrease. Thus, assay signal is inversely proportional to binding inhibition.
100 nl of 100× compound dose response curves (serial 3-fold dilutions) in DMSO are stamped using an Echo liquid handling system (Labcyte) into 384-well low volume black assay plates (Greiner, #784076), with DMSO in columns 6 and 18. The top concentration of compound is located in columns 1 and 13. Keap1 (321-609) is diluted to 40 nM (2×) in 1× assay buffer (50 mM Tris, pH 8.0, 100 mM NaCl, 5 mM MgCl2, 1 mM DTT, 2 mM CHAPS, and 0.005% BSA) and 5 ul is added using a Multidrop Combi (Thermo Electron Corporation) equipped with a metal tip dispenser to all wells of the compound plate, except column 18. Column 18 receives only 5 ul of assay buffer. Immediately, 5 uL of 16 nM (2×) of Tamra labeled peptide (AFFAQLQLDEETGEFL, 21st Century Biochemicals) is added to all wells of the plate. The plates are spun at 500 rpm for 1 min, incubated for 1 hr at room temperature, and read on an Analyst GT (Molecular Devices) equipped with excitation (530/25 nm) and emission (580/10 nm) filters designed for Tamra probes. A 561 nm dichroic mirror is also used in the Analyst. The final assay concentrations of Keap1 (321-609) and Tamra labeled peptide are 20 nM and 8 nM, respectively. Fluorescence measurements, represented as mP, are used in the transformation of the data. Compound activity is calculated based on percent inhibition, normalized against controls in the assay (Control 1 contains the Tamra peptide and Keap1 (321-609) together (0% response) and control 2 contains the Tamra peptide alone (100% response)). Data analysis is handled using the software package Abase XE (Surrey, United Kingdom. The % inhibition values are calculated by the equation: 100−(100*((compound response-average control 2)/(average control 1−average control 2))). For calculation of pIC50s, Abase XE uses a four parameter equation.

[1] = tested on: NQO1 specific enzyme activity in BEAS-2B cells; assay: BEAS-2B NQO1 MTT Assay; type: cell-based; conditions: NQO1 specific activity induction
Excerpt: NAD(P)H:quinone oxidoreductase 1 (NQO1), also called DT diaphorase, is a homodimeric FAD-containing enzyme that catalyzes obligatory NAD(P)H-dependent two-electron reductions of quinones and protects cells against the toxic and neoplastic effects of free radicals and reactive oxygen species arising from one-electron reductions. The transcription of NQO1 is finely regulated by NRF2, and thus NQO1 activity is a good marker for NRF2 activation. On day one, frozen BEAS-2B cells (ATCC) are thawed in a water bath, counted, and re-suspended at a concentration of 250,000 cells/mL. Fifty microliters of cells are plated in 384 well black clear-bottomed plates. Plates are incubated at 37° C., 5% CO2 overnight. On day two, plates are centrifuged and 50 nL of compound or controls are added to the cells. Plates are then incubated at 37° C., 5% CO2 for 48 hours. On day four, medium is aspirated from the plate and crude cell lysates are made by adding 13 uL of 1× Cell Signaling Technologies lysis buffer with 1 Complete, Mini, EDTA-free Protease Inhibitor Tablet (Roche) for each 10 mL of lysis buffer. After lysis plates are incubated for 20 minutes at room temperature. Two microliters of lysate are removed for use in Cell Titer Glo assay (Promega) and MTT cocktail is prepared (Prochaska et. al. 1998) for measurement of NQO1 activity. Fifty microliters of MTT cocktail is added to each well, plate is centrifuged, and analyzed on an Envision plate reader (Perkin Elmer) using Absorbance 570 nm label for 30 minutes. Product formation is measured kinetically and the pEC50 of NQO1 specific activity induction is calculated by plotting the change in absorbance (Delta OD/min) versus the log of compound concentration followed by 3-parameter fitting.

NRF2/Keap1 = target: T2, NRF2/Keap1 (Homo sapiens, UniProt Q14145); assay: NRF2-Keap1 TR-FRET Assay (full length NRF2 and full length Keap1); type: binding; conditions: 25 nM Keap1-FlagHis, 50 nM biotin-NRF2 added
T2 construct: full length NRF2 protein and full length Keap1 protein (Keap1 exists a dimer) are used
T2 sequence (Q14145 whole entry): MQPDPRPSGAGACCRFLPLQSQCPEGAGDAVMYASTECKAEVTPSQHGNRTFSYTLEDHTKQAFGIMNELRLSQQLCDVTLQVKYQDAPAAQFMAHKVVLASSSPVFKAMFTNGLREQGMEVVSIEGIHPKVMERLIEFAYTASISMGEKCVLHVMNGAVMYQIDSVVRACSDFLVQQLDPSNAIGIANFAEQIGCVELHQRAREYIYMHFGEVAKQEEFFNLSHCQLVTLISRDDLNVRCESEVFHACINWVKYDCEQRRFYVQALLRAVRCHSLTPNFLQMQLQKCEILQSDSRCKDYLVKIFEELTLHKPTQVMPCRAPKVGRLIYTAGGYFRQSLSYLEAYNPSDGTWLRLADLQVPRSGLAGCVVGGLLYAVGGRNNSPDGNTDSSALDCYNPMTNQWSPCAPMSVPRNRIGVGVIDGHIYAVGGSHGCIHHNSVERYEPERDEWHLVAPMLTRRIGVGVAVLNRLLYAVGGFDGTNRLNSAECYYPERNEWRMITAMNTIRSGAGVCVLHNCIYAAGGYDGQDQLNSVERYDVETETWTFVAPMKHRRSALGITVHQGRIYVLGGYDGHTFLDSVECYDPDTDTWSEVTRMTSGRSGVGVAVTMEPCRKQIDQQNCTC
Excerpt: In the NRF2-Keap1 TR-FRET (time-resolved fluorescence resonance energy transfer) assay, full length NRF2 protein and full length Keap1 protein (Keap1 exists a dimer) are used. The assay detects the ability of compound to displace the binding of FlagHis-tagged Keap1 with biotinylated, Avi-tagged NRF2 protein. Biotin-NRF2 binds to streptavidin-europium (a component of the detection mix) and Keap1-FlagHis is recognized by anti-Flag APC (allophycocyanin) antibody (also a component of the detection mix). If binding occurs between the two proteins, there will be an energy transfer from the Eu+3 (donor) at 615 nm to the APC (acceptor) at 665 nm. A potential Keap1 inhibitor will cause a reduction in the TR-FRET signal by interfering with the binding of Keap1 to NRF2.
One hundred nanoliters of 100× compound dose response curves (serial 3-fold dilutions) in DMSO are stamped using an Echo liquid handling system (Labcyte) into 384-well, low volume, black assay plates (Greiner, #784076), with DMSO in columns 6 and 18. The top concentration of compound is located in columns 1 and 13. All reagents are diluted in assay buffer (50 mM Tris, pH 8.0, 5 mM MgCl2, 100 mM NaCl, 0.005% BSA, 1 mM DTT, and 2 mM CHAPS). The BSA, DTT, and CHAPS are added to the assay buffer on the day of assay. Using a Multidrop Combi (Thermo Electron Corporation) equipped with a metal tip dispenser, 5 ul of 25 nM Keap1-FlagHis protein is added to all wells of the compound plate, with the exception of the wells in column 18. Wells in column 18 receive 5 ul of assay buffer instead. Plates are centrifuged at 500 rpm for 1 minute, covered with a plate lid, and incubated at 37° C. for 2.25 hours. Plates are then removed from the incubator and allowed to cool to RT for 15 minutes. Five microliters of 50 nM biotin-NRF2 protein is then added to all wells of the plates and the plates are spun at 500 rpm for 1 minute, followed by incubating at 4° C. for 1.25 hours. The plates are then allowed to warm to RT for 15 minutes, followed by the addition of 10 ul of detection mix (1 nM Streptavidin Eu+ W1024 and 5 ug/ml mouse anti-DYKDDDDK IgG conjugated to SureLight APC antibody; both from Columbia Biosciences) to all wells. Plates are spun at 500 rpm for 1 minute, incubated for 1 hour at RT, and read on an Envision plate reader using a 320 nm excitation filter and 615 nm and 665 nm emission filters. Compound response (% inhibition) and potency (pIC50) are calculated based on the ratio of the two emissions (665 nm/615 nm) and then the transformed data is normalized against controls in the assay (control 1=1% DMSO in the presence of NRF2 and Keap1 protein and control 2=1% DMSO in the absence of protein). Data analysis is handled using the software package Abase XE (Surrey, United Kingdom). The % inhibition values are calculated from the ratio (transformed) data by the equation: 100−(100*(compound response-average control 2)/(average control 1−average control 2)).
For calculation of pIC50s, Abase XE uses a four parameter equation.

T1 sequence (Q14145 321-609): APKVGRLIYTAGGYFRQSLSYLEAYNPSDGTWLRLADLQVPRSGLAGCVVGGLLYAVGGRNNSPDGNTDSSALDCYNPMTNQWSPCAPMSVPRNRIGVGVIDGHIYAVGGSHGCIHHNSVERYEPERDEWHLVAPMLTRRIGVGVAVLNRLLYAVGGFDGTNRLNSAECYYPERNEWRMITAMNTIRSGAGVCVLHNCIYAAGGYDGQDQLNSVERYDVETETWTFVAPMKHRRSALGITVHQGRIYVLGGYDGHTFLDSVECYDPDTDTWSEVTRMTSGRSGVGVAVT

O=C(O)c1cnn(-c2cccc(C3CCCC(C(=O)N4CCCC45CCCCC5)C3)c2)c1C1CC1 (racemic) [Example 7, 1-[3-(3-{1-Azaspiro[4.5]decane-1-carbonyl}cyclohexyl)phenyl]-5-cyclopropyl-1H-pyrazole-4-carboxylic Acid]
IC50 (Keap1/NRF2): 100 to 1000 nM | EC50 ([1]; Homo sapiens, BEAS-2B, 48 h): 1 to 10 µM | IC50 (NRF2/Keap1): 1000 to 10000 nM

CC1CCc2cnn([C@@H]3CCC[C@H](c4cccc(-n5ncc(C(=O)O)c5C5CC5)c4)C3)c21 (mixture of isomers) [Example 14, 5-Cyclopropyl-1-{3-[(cis)-3-(6-methyl-5,6-dihydro-4H-cyclopentapyrazol-1-yl)-cyclohexyl]-phenyl}-1H-pyrazole-4-carboxylic Acid]
IC50 (Keap1/NRF2): 100 to 1000 nM | EC50 ([1]; Homo sapiens, BEAS-2B, 48 h): 1 to 10 µM | IC50 (NRF2/Keap1): 1000 to 10000 nM

CC1(C)CCCN1C(=O)C1CCCC(c2cccc(-n3ncc(C(=O)O)c3C3CC3)c2)C1 (racemic) [Example 6, 5-cyclopropyl-1-{3-[3-(2,2-dimethylpyrrolidine-1-carbonyl)cyclohexyl]phenyl}-1H-pyrazole-4-carboxylic Acid]
IC50 (Keap1/NRF2): 100 to 1000 nM | EC50 ([1]; Homo sapiens, BEAS-2B, 48 h): 1 to 10 µM | IC50 (NRF2/Keap1): 1000 to 10000 nM

CCCC1CCc2cnn([C@@H]3CCC[C@H](c4cccc(-n5ncc(C(=O)O)c5C5CC5)c4)C3)c21 (mixture of isomers) [Example 16, 5-Cyclopropyl-1-[3-(3-{6-propyl-1H,4H,5H,6H-cyclopenta[c]pyrazol-1-yl}cyclohexyl)phenyl]-1H-pyrazole-4-carboxylic Acid]
IC50 (Keap1/NRF2): 100 to 1000 nM | EC50 ([1]; Homo sapiens, BEAS-2B, 48 h): 1 to 10 µM | IC50 (NRF2/Keap1): 1000 to 10000 nM

CC1CCN(C(=O)C2CCCC(c3cccc(-n4ncc(C(=O)O)c4C4CC4)c3)C2)C1 (racemic) [Example 25, 5-Cyclopropyl-1-{3-[3-(3-methyl-pyrrolidine-1-carbonyl)-cyclohexyl]-phenyl}-1H-pyrazole-4-carboxylic Acid]
IC50 (Keap1/NRF2): 100 to 1000 nM | EC50 ([1]; Homo sapiens, BEAS-2B, 48 h): 1 to 10 µM | IC50 (NRF2/Keap1): 1000 to 10000 nM

CN(C)C(=O)[C@H]1CCC[C@@H](c2cccc(-n3ncc(C(=O)O)c3C3CC3)c2)C1 (racemic) [Example 1, 5-Cyclopropyl-1-{3-[3-(dimethylcarbamoyl)cyclohexyl]phenyl}-1H-pyrazole-4-carboxylic Acid]
IC50 (Keap1/NRF2): 100 to 1000 nM | EC50 ([1]; Homo sapiens, BEAS-2B, 48 h): 1 to 10 µM | IC50 (NRF2/Keap1): 1000 to 10000 nM

CCCCC1CCc2cnn([C@@H]3CCC[C@@H](c4cccc(-n5ncc(C(=O)O)c5C5CC5)c4)C3)c21 (stereo in doubt) [Example 37, 1-(3-((1,3-cis)-3-(6-Butyl-5,6-dihydrocyclopenta[c]pyrazol-1(4H)-yl)cyclohexyl)phenyl)-5-cyclopropyl-1H-pyrazole-4-carboxylic Acid]
IC50 (Keap1/NRF2): 100 to 1000 nM | EC50 ([1]; 48 hours): 1 to 10 µM | IC50 (NRF2/Keap1): 1000 to 10000 nM

O=C(O)c1cnn(-c2cccc(C3CCCC(C(=O)N4CCCC4C4CCC4)C3)c2)c1C1CC1 (racemic) [Example 13, 1-{3-[3-(2-cyclobutylpyrrolidine-1-carbonyl)cyclohexyl]phenyl}-5-cyclopropyl-1H-pyrazole-4-carboxylic Acid]
IC50 (Keap1/NRF2): 10 to 100 nM | EC50 ([1]; Homo sapiens, BEAS-2B, 48 h): 1 to 10 µM | IC50 (NRF2/Keap1): 100 to 1000 nM

O=C(O)c1cnn(-c2cccc(C3CCCC(n4ncc5c4CCCC5)C3)c2)c1C1CC1 (racemic) [Example 2, 5-Cyclopropyl-1-{3-[3-(4,5,6,7-tetrahydro-1H-indazol-1-yl)cyclohexyl]phenyl}-1H-pyrazole-4-carboxylic Acid]
IC50 (Keap1/NRF2): 100 to 1000 nM | EC50 ([1]; Homo sapiens, BEAS-2B, 48 h): 1 to 10 µM | IC50 (NRF2/Keap1): 1000 to 10000 nM
